Where “and” joins values, the source holds several entries; their conditions need not be identical. Equal entries are not always repeated. Entries after “also recorded” stand apart in the source; their conditions may differ. Where two headings read alike, the source gives them in different places.
Experiments:
HCV-JC1-Luc = test: Validation of antiviral effects of 20 hits: release of infectious HCV-JC1-Luc particles from Huh7.5 cells; type: cell-based, Hepatitis C virus; conditions: 10 μM, among the best 20 candidates
Protocol: Huh7.5 cells were electroporated with HCV-JC1-Luc (reporter virus expressing luciferase via IRES) RNA and treated 24 h later with the best 20 candidates (10 μM). After another 24 h the supernatants were harvested. To quantify infectious particles, untreated Huh7.5 cells were inoculated with the supernatants and 36 h later the luciferase activity was measured. The viability of the same cells was determined 24 h after treatment with inhibitor by MTT assay (tetrazolium salt which is reduced in metabolically active cells resulting in a color change). For both parameters, 100% corresponds to the release or viability of the untreated or DMSO treated control. uninf.=not infected; untr.=not treated. Mean values and SD were derived from n =3 independent infections.
Huh7.5 hepatocellular carcinoma cells were electroporated with HCV-JC1-Luc (reporter virus expressing luciferase via IRES) RNA and treated 24 h later with the best 20 candidates (10 μM) identified in Example 1. After another 24 h, the supernatants were harvested. To quantify infectious particles, untreated Huh7.5 cells were inoculated with the supernatants and luciferase activity was measured 36 h later (FIG. 2).

[1] = tested on: ZIKV (Asian/Cook Islands/2014); test: Plaque assay of released virus, ZIKV-infected Vero cells; type: cell-based; conditions: Zika virus
Protocol: Vero cells were infected with ZIKV at an MOI of 1 for 2 h (post infection), after which virus was removed, and fresh maintenance medium containing 2% FCS together with the indicated concentration of C10 added. For co-treat condition, Vero cells were infected with ZIKV at an MOI of 1 in the presence of C10 for 2 h, followed by removal of the virus/C10 inoculums, and addition of fresh 2% fetal calf serum maintenance medium. […] Results represent the mean ±SD for duplicate wells from a single assay (cf. Table 2 for pooled data).
Vero and BHK-21 cells were maintained in DMEM media supplemented with 10% heat-inactivated FBS at 37° C. in a humidified incubator supplemented with 5% CO2; A549 cells were maintained in F-12K medium supplemented with 10% heat-inactivated Fetal Bovine Serum (FBS), 2 mM L-glutamine, 50 U/I penicillin, 0.05 mg/l streptomycin. DENV-1-4 strains, cell culture conditions and Gen-Bank accession numbers, as well as details of RSV strains and culture are known in the art. […] Viral titer was subsequently determined by plaque assay (see below).
Vero cells were seeded into 24-well plates at a density of 2×10^5 cells/well and grown overnight in culture medium at 37° C. with 5% CO2 prior to infection with RSV, KUNV, ZIKV as indicated. BHK-21 cells were used for DENV1-4. […] The stain was removed by rinsing the cells with tap water, and the viral plaques were counted visually. […]

[2] = Pharmacokinetic study in Balb/c mice, intravenous administration; type: in vivo; parameters: Kel (Lambda_z): unit not given here; conditions: for Plasma concentration, Group A-D: single animals; for half-life: iv
Protocol: Study design, animal selection, handling and treatment were all in accordance with the study protocols and institutional animal care and use guidelines. Male Balb/c mice (9-10 weeks old, body weight 22.3 to 38.1 g and average body weight across all groups 31.4 g, SD=3.20 g) were used in this study. The animals were randomly assigned to the treatment groups before the pharmacokinetic study; all animals were fasted for 4 h before dosing. Six time points for PO (15, 30, 60, 120, 240 and 360 min) and IV (5, 15, 30, 60, 120 and 240 min) routes were used in this pharmacokinetic study. Each of the PO and IV time point treatment groups included 4 animals. There was also control group of 2 animals. Dosing was done according to the treatment schedules outlined in Table 3. Mice were injected IV with 2,2,2-tribromoethanol at the dose of 150 mg/kg prior to taking blood. Blood collection was performed from the orbital sinus in microtainers containing K2EDTA. Animals were sacrificed by cervical dislocation after blood samples collection. All samples were immediately prepared, flash-frozen and stored at −70° C. until subsequent bioanalysis.
Samples Processing Plasma samples ([…]) were mixed with […] of IS solution. After mixing by pipetting and centrifuging for 4 min at 6,000 rpm, […] of each supernatant was injected into LC-MS/MS system. Solution of compound IS-02-03 (200 ng/ml in acetonitrile-methanol mixture, 1:1, v/v) was used as internal standard (IS) for quantification of C10 in plasma samples. Samples Analysis The concentrations of C10 were determined using high performance liquid chromatography/tandem mass spectrometry (HPLC-MS/MS). Shimadzu H PLC system comprised of 2 isocratic pumps LC-10Advp, an autosampler SIL-HTc, a sub-controller FCV-14AH and a degasser DGU-14A. Mass spectrometric analysis was performed using an API 3000 (triple-quadrupole) instrument from AB Sciex (Canada) with an electro-spray (ESI) interface. The data acquisition and system control was performed using Analyst 1.5.2 software from AB Sciex. HPLC-MS/MS Conditions
The pharmacokinetic data analysis was performed using non-compartmental, bolus injection or extravascular input analysis models in WinNonlin 5.2 (PharSight). Data below LLOQ were presented as missing to improve validity of T1/2 calculations. No outlier data points were removed from calculations. The bioavailability for the peroral route was calculated as: […]

[3] = male, Balb/c, mouse, plasma, IV 5 mg/kg

## CCN1/C(=C\C=C\c2sc3cc(NC(C)=O)ccc3[n+]2CC)Sc2cc(NC(C)=O)ccc21.[I-] [C10, 6-acetamido-2-((1E,3E)-3-(6-acetamido-3-ethylbenzo[d]thiazol-2(3H)-ylidene)prop-1-en-1-yl)-3-ethylbenzo[d]thiazol-3-ium iodide]
HCV-JC1-Luc
  antiviral activity (release of infectious particles): highest antiviral activity
[1]; read-out: EC50 from plaque assays, ZIKV, c.t.
  EC50: 90 nM
[1]; read-out: EC50 from plaque assays, ZIKV, p.i.
  EC50: 210 nM
[2]; IV 5 mg/kg
  Kel (Lambda_z): 0.00581
  Vd (Vz_obs): 14.1 L/kg
[2]; IV 5 mg/kg, 5 min
  Plasma concentration, Mean: 2690 ng(ml)
[2]; IV 5 mg/kg, 5 min, 5 mg/kg
  Plasma concentration, Group A-D: 2780 ng(ml) and 2310 ng(ml) and 2606 ng(ml) and 3063 ng(ml)
[2]; IV 5 mg/kg, 15 min
  Plasma concentration, Mean: 311 ng(ml)
[2]; IV 5 mg/kg, 15 min, 5 mg/kg
  Plasma concentration, Group A-D: 185 ng(ml) and 316 ng(ml) and 521 ng(ml) and 221 ng(ml)
[2]; IV 5 mg/kg, 30 min
  Plasma concentration, Mean: 154 ng(ml)
[2]; IV 5 mg/kg, 30 min, 5 mg/kg
  Plasma concentration, Group A-D: 109 ng(ml) and 152 ng(ml) and 189 ng(ml) and 164 ng(ml)
[2]; IV 5 mg/kg, 60 min
  Plasma concentration, Mean: 109 ng(ml)
[2]; IV 5 mg/kg, 60 min, 5 mg/kg
  Plasma concentration, Group A-D: 93 ng(ml) and 160 ng(ml) and 89 ng(ml) and 92 ng(ml)
[2]; IV 5 mg/kg, 120 min
  Plasma concentration, Mean: 60 ng(ml)
[2]; IV 5 mg/kg, 120 min, 5 mg/kg
  Plasma concentration, Group A-D: 69 ng(ml) and 44 ng(ml) and 59 ng(ml) and 67 ng(ml)
[2]; IV 5 mg/kg, 240 min
  Plasma concentration, Mean: 43 ng(ml)
[2]; IV 5 mg/kg, 240 min, 5 mg/kg
  Plasma concentration, Group A-D: 47 ng(ml) and 43 ng(ml) (2×) and 40 ng(ml)
[2]; IV, 5 mg/kg
  tolerability in mice: tolerated; also recorded: not toxic at high concentrations
[2]; male, Balb/c, mouse, plasma, 5 mg/kg, calculated, IV, read-out: volume of distribution
  Vd: 14.1 L/kg
[2]; male, Balb/c, mouse, plasma, 5 mg/kg, IV 5 mg/kg, read-out: T1/2 (HL_Lambda_z)
  half-life: 1.98 h
[2]; male, Balb/c, mouse, plasma, 5 mg/kg, mice, IV administration, read-out: half-life in plasma/serum (converted)
  half-life: ~2 h
[2]; [3]
  Cmax: 2690 ng/mL
  Tmax: 5 min
[2]; male, Balb/c, mouse, plasma, IV 5 mg/kg, read-out: AUC0→t = 240 min (AUClast) (converted)
  AUC(0-t): 892 ng·h/mL
[2]; male, Balb/c, mouse, plasma, IV 5 mg/kg, read-out: AUC0→∞ (AUCINF_obs) (converted)
  AUC(0-inf): 1020 ng·h/mL
[2]; male, Balb/c, mouse, plasma, IV 5 mg/kg, read-out: CL (Cl_obs)
  clearance: 82.1 mL/min/kg
[2]; male, Balb/c, mouse, plasma, IV 5 mg/kg, read-out: MRT (MRTinf) (converted)
  MRT inf: 1.36 h
[2]; male, Balb/c, mouse, plasma, IV 5 mg/kg, read-out: MRT (MRTlast) (converted)
  MRT last: 0.59 h
